Results published in patent publication EP2342182B1 (H. Lundbeck A/S, priority 2008, dated 2010).
Starred links: 1 amine or outer side, 2 acyl side, 3 side chain; linkers in the order of their positions; H or OH if unused. Non-standard residues stand in square brackets, D forms with d. Residues, ends and D or L forms follow the SMILES beside them. X1 = O=C([C@H](Cc1cnc(I)[nH]1)N[*:1])[*:2]

Target: T1, human NK3 receptor (Homo sapiens, UniProt P29371)
T1 construct: expressed in transfected cells; membranes prepared from them
T1 sequence (P29371 1-465): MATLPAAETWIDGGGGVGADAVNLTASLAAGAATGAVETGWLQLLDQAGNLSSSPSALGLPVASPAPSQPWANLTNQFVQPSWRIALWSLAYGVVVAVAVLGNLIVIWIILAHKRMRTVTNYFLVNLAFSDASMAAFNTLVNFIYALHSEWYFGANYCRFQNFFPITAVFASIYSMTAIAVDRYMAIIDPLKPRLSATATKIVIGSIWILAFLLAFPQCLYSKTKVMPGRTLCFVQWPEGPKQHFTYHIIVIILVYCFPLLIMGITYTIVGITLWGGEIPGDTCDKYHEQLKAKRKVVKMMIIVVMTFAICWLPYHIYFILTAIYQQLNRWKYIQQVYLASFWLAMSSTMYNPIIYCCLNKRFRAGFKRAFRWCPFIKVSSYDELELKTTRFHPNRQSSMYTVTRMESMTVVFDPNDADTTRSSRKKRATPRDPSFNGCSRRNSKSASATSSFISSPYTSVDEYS
Assay: NK3 receptor binding assay (SPA-based competition binding with 125I-NKB)
Settings: read-out: KD of 125I-NKB; three independent saturation assays, duplicate determinations
Description: Example 12 NK3 receptor binding assay Membranepreparation: BHK cells stably expressing the human NK3 receptor were seeded in harvesting plates in Dulbeccos MEM containing GlutaMax (862 mg/l), 1mM sodium pyruvate, 10% fetal calf serum, 1% Pen/Strep, 1 mg/ml G418 and were grown at 34 °C in a humidified atmosphere containing 10% CO2. To increase receptor expression, 10 µM trichotatin A was added to the media 24 hours before harvest of the cells at a confluency of app 90%. Prior to the harvesting, the cells were washed twice with PBS without Mg^2+ og Ca^2+ and subsequently scrapped of in 10 ml PBS pr harvesting plate. The cells suspension were centrifuged at 1500xG in three minutes before resuspension in 15 mM Tris-HCl pH 7,5 buffer containing 2 mM MgCl2; 0,3 mM EDTA and 1 mM EGTA (buffer A). The cell suspention was homogenised and subsequently centrifuged at 40000xG in 30 minutes. The membrane-pellet was resuspended in buffer A containing 250 mM sucrose, alliquoted and stored at ― 80 °C. Affinity assay description: The assay was performed as a SPA-based competition-binding assay in a 50 mM Tris pH 7.4 assay buffer containing 120 mM NaCl, 3 mM MnCl2, 40 µg/ml bacitracin, 2 µg/ml Chymostatin, 1 µg/ml Phosphoramidon and 4 µg/ml Leupeptin. […] The plate was centrifugated 10 minutes at 500xG and counted in a topcounter 5 minuttes pr well. […]

`CSCC[C@H](NC(=O)[C@H](CC(C)C)NC(=O)CNC(=O)[C@@H](NC(=O)[C@H](Cc1ccccc1)NC(=O)[C@H](Cc1ccccc1)NC(=O)[C@H](CC(=O)O)NC(=O)[C@H](Cc1cnc(I)[nH]1)NC(=O)[C@H](CCSC)NC(=O)[C@@H](N)CC(=O)O)C(C)C)C(N)=O` [^125I-NKB] (H-DM[X1]DFFVGLM-NH2) gave a Kd of 0.7 nM.
